Among the data in patent US11530210B2, “Substituted heteroaromatic pyrazolo-pyridines and their use as GLUN2B receptor modulators” (JANSSEN PHARMACEUTICA NV, priority 2019, dated 2022) are IC50 values, retold here.

This assay has as its target T1, human GluN1/GluN2B NMDA receptors (Homo sapiens, UniProt Q13224).
T1 construct: expressed in transfected cells
The assay is described as follows: Calcium flux (FLIPR) assay on cloned human NR1/GluN2B ion channels expressed in mammalian cells (standard and HTS variants). As to conditions: cells expressing human GluN1/GluN2B, glutamate and glycine co-agonists. In kind it is cell-based. An outline of the steps: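 Calcium influx read by FLIPR after co-agonist addition (glycine 10 μM, glutamate near EC40) following 5 min compound preincubation, with signal normalized to control wells.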

T1 sequence (Q13224 27-1484, other chains not shown): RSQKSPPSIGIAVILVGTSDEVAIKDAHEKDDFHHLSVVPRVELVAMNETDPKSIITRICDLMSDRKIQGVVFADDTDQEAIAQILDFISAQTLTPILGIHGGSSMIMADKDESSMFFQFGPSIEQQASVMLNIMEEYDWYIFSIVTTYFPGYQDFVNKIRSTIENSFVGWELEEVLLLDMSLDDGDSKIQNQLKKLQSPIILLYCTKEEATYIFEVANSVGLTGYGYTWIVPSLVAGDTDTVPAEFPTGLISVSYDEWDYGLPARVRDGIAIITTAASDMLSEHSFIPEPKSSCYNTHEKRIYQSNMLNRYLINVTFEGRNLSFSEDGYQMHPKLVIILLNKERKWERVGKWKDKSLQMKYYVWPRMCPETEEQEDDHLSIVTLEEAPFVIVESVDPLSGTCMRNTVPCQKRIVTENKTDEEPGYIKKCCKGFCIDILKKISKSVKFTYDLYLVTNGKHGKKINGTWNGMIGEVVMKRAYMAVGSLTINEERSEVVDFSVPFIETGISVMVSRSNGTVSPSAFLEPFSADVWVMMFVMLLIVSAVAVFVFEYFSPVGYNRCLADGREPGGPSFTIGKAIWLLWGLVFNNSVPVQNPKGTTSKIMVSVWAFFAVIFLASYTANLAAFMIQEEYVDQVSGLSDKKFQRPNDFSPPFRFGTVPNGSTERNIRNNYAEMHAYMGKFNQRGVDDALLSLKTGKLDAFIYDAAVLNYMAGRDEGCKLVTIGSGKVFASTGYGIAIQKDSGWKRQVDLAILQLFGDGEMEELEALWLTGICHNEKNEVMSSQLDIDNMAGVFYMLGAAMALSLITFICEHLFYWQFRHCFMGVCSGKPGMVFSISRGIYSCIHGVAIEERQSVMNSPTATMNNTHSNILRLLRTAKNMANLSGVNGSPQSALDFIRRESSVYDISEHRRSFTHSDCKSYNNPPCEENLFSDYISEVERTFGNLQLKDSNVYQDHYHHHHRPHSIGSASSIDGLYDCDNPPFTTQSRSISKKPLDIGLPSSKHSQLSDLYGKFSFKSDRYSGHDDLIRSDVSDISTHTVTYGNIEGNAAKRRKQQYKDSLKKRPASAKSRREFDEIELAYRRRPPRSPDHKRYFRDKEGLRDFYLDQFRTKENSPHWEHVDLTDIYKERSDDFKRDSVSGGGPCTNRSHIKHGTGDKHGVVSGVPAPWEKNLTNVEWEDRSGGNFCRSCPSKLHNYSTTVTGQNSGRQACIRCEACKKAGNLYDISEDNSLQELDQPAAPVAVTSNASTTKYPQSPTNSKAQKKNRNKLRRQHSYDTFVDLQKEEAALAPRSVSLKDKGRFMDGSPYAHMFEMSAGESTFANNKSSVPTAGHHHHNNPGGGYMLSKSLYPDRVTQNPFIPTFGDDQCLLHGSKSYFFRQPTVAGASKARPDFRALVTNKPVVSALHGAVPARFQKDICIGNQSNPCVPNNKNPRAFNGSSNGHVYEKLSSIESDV

Consider `Fc1ccc(-c2cnc3cnn(Cc4ccccn4)c3c2)cc1C(F)F` [Example 197, 6-[3-(Difluoromethyl)-4-fluoro-phenyl]-1-(2-pyridylmethyl)pyrazolo[4,3-b]pyridine], for which the IC50 is 130 nM.
In the case of `Cc1nn(Cc2cccnc2)c2cc(-c3ccc(F)c(C(F)F)c3)cnc12` [Example 199, 6-[3-(Difluoromethyl)-4-fluoro-phenyl]-3-methyl-1-(3-pyridylmethyl)pyrazolo[4,3-b]pyridine], the IC50 was 34 nM.
On to `Cc1cncc(Cn2ncc3ncc(-c4ccc(F)c(C(F)F)c4)cc32)c1` [Example 200, 6-[3-(Difluoromethyl)-4-fluoro-phenyl]-1-[(5-methyl-3-pyridyl)methyl]pyrazolo[4,3-b]pyridine], for which the IC50 is 12 nM.
In the case of `Fc1ccc(Cn2ncc3ncc(-c4ccc(F)c(C(F)F)c4)cc32)cn1` [Example 201, 6-(3-(Difluoromethyl)-4-fluorophenyl)-1-((6-fluoropyridin-3-yl)methyl)-1H-pyrazolo[4,3-b]pyridine], the IC50 came to 16 nM.
On to `N#Cc1cncc(Cn2ncc3ncc(-c4ccc(F)c(C(F)F)c4)cc32)c1` [Example 203, 5-[[6-[3-(Difluoromethyl)-4-fluoro-phenyl]pyrazolo[4,3-b]pyridin-1-yl]methyl]pyridine-3-carbonitrile], for which the IC50 is 31 nM.
For `COc1ccc(Cn2ncc3ncc(-c4ccc(F)c(C(F)F)c4)cc32)cn1` [Example 204, 6-[3-(Difluoromethyl)-4-fluoro-phenyl]-1-[(6-methoxy-3-pyridyl)methyl]pyrazolo[4,3-b]pyridine], the IC50 stood at 1620 nM.
The figure for `COc1cccc(Cn2ncc3ncc(-c4ccc(F)c(C(F)F)c4)cc32)n1` [Example 205, 6-[3-(Difluoromethyl)-4-fluoro-phenyl]-1-[(6-methoxy-2-pyridyl)methyl]pyrazolo[4,3-b]pyridine] is 177 nM; for `COc1ncccc1Cn1ncc2ncc(-c3ccc(F)c(C(F)F)c3)cc21` [Example 206, 6-[3-(Difluoromethyl)-4-fluoro-phenyl]-1-[(2-methoxy-3-pyridyl)methyl]pyrazolo[4,3-b]pyridine] it is 307 nM.
For `COc1cncc(Cn2ncc3ncc(-c4ccc(F)c(C(F)F)c4)cc32)c1` [Example 207, 6-[3-(Difluoromethyl)-4-fluoro-phenyl]-1-[(5-methoxy-3-pyridyl)methyl]pyrazolo[4,3-b]pyridine], the IC50 was 28 nM.
As to `Fc1ccc(-c2cnc3cnn(Cc4cncc(Cl)c4)c3c2)cc1C(F)F` [Example 208, 1-[(5-Chloro-3-pyridyl)methyl]-6-[3-(difluoromethyl)-4-fluoro-phenyl]pyrazolo[4,3-b]pyridine], the IC50 worked out at 26 nM.
As for `Fc1ccc(-c2cnc3cnn(Cc4cncc(C(F)F)c4)c3c2)cc1C(F)F` [Example 209, 6-[3-(Difluoromethyl)-4-fluoro-phenyl]-1-[[5-(difluoromethyl)-3-pyridyl]methyl]pyrazolo[4,3-b]pyridine], the IC50 turned out to be 20 nM.
To `Fc1ccc(-c2cnc3cnn(Cc4cncc(OC(F)F)c4)c3c2)cc1C(F)F` [Example 210, 1-[[5-(Difluoromethoxy)-3-pyridyl]methyl]-6-[3-(difluoromethyl)-4-fluoro-phenyl]pyrazolo[4,3-b]pyridine] belongs 110 nM; to `Fc1ccc(-c2cnc3cnn(Cc4cncc(C(F)(F)F)c4)c3c2)cc1C(F)F` [Example 211, 6-[3-(Difluoromethyl)-4-fluoro-phenyl]-1-[[5-(trifluoromethyl)-3-pyridyl]methyl]pyrazolo[4,3-b]pyridine], 47 nM.
As to `N#Cc1cncc(Cn2ncc3ncc(-c4cccc(C(F)F)c4F)cc32)c1` [Example 212, 5-[[6-[3-(Difluoromethyl)-2-fluoro-phenyl]pyrazolo[4,3-b]pyridin-1-yl]methyl]pyridine-3-carbonitrile], the concentration for half-maximal inhibition (IC50) was determined as 67 nM.
To `Fc1c(-c2cnc3cnn(Cc4cncc(Cl)c4)c3c2)cccc1C(F)F` [Example 213, 1-[(5-Chloro-3-pyridyl)methyl]-6-[3-(difluoromethyl)-2-fluoro-phenyl]pyrazolo[4,3-b]pyridine] belongs 68 nM; to `Fc1ccc(Cn2ncc3ncc(-c4ccc(Cl)c(Cl)c4)cc32)cn1` [Example 214, 6-(3,4-Dichlorophenyl)-1-[(6-fluoro-3-pyridyl)methyl]pyrazolo[4,3-b]pyridine], 1910 nM.
Take `COc1cncc(Cn2ncc3ncc(-c4ccc(Cl)c(Cl)c4)cc32)c1` [Example 215, 6-(3,4-Dichlorophenyl)-1-[(5-methoxy-3-pyridyl)methyl]pyrazolo[4,3-b]pyridine]: the IC50 was 217 nM.
To `CC(F)(F)c1cc(-c2cnc3cnn(Cc4cccnc4)c3c2)ccc1F` [Example 216, 6-[3-(1,1-Difluoroethyl)-4-fluoro-phenyl]-1-(3-pyridylmethyl)pyrazolo[4,3-b]pyridine] belongs 109 nM.
Turning to `Cc1cncc(Cn2ncc3ncc(-c4ccc(F)c(C(C)(F)F)c4)cc32)c1` [Example 217, 6-[3-(1,1-Difluoroethyl)-4-fluoro-phenyl]-1-[(5-methyl-3-pyridyl)methyl]pyrazolo[4,3-b]pyridine], the IC50 was 189 nM.
Take `CC(F)(F)c1cc(-c2cnc3cnn(Cc4cncc(F)c4)c3c2)ccc1F` [Example 218, 6-[3-(1,1-Difluoroethyl)-4-fluoro-phenyl]-1-[(5-fluoro-3-pyridyl)methyl]pyrazolo[4,3-b]pyridine]: the IC50 turned out to be 107 nM.
Consider `CC(F)(F)c1cc(-c2cnc3cnn(Cc4cncc(C#N)c4)c3c2)ccc1F` [Example 219, 5-[[6-[3-(1,1-Difluoroethyl)-4-fluoro-phenyl]pyrazolo[4,3-b]pyridin-1-yl]methyl]pyridine-3-carbonitrile], for which the IC50 was found to be 158 nM.
For the molecule `COc1cncc(Cn2ncc3ncc(-c4ccc(F)c(C(C)(F)F)c4)cc32)c1` [Example 220, 6-[3-(1,1-Difluoroethyl)-4-fluoro-phenyl]-1-[(5-methoxy-3-pyridyl)methyl]pyrazolo[4,3-b]pyridine], the IC50 was 89 nM.
Regarding `CC(F)(F)c1cc(-c2cnc3cnn(Cc4cncc(Cl)c4)c3c2)ccc1F` [Example 221, 1-[(5-Chloro-3-pyridyl)methyl]-6-[3-(1,1-difluoroethyl)-4-fluoro-phenyl]pyrazolo[4,3-b]pyridine], the IC50 stood at 64 nM.
Regarding `Fc1ccc(-c2cnc3cnn(Cc4ccccn4)c3c2)cc1OC(F)F` [Example 222, 6-[3-(Difluoromethoxy)-4-fluoro-phenyl]-1-(2-pyridylmethyl)pyrazolo[4,3-b]pyridine], the IC50 was determined as 502 nM.
For `Fc1ccc(-c2cnc3cnn(Cc4cccnc4)c3c2)cc1OC(F)F` [Example 223, 6-[3-(Difluoromethoxy)-4-fluoro-phenyl]-1-(3-pyridylmethyl)pyrazolo[4,3-b]pyridine], the IC50 was 38 nM.
Turning to `Cc1cncc(Cn2ncc3ncc(-c4ccc(F)c(OC(F)F)c4)cc32)c1` [Example 224, 6-[3-(Difluoromethoxy)-4-fluoro-phenyl]-1-[(5-methyl-3-pyridyl)methyl]pyrazolo[4,3-b]pyridine], the IC50 is 56 nM.
The figure for `Fc1cncc(Cn2ncc3ncc(-c4ccc(F)c(OC(F)F)c4)cc32)c1` [Example 225, 6-[3-(Difluoromethoxy)-4-fluoro-phenyl]-1-[(5-fluoro-3-pyridyl)methyl]pyrazolo[4,3-b]pyridine] is 39 nM.
